87 compounds from a melting point compilation (Tetko et al.; mined from patent text by program, amines drawn as free bases though some values may be those of a salt) can be followed below.

Turning to `CN(Cc1cc(C(F)(F)F)cc(C(F)(F)F)c1)C(=O)c1c(-c2ccc(F)cc2)c2ccsc2c(=O)n1C`, the melting point fell in the range of 196 to 197 °C.

Compound `CCCc1c(OCCCCCOc2ccc3c(c2CCC)OC(C(=O)OC)CC3)ccc(C(C)=O)c1O` (configuration not stated) registered a melting point of 57 to 58 °C.

In turn, `CC(C)OC(=O)N1CCC(c2nc3ccc(-c4ccc(C(N)=O)c(F)c4)cc3o2)CC1` showed a melting point of 178 to 181 °C.

Regarding `OCc1cccc2c1CCCN2`, the melting point lay in the range of 120 to 122 °C.

In the case of `CC(C)(C)c1nn(-c2cc(F)c(C#N)cc2F)c(=O)o1`, the melting point was 137 °C.

Turning to `Cc1cc(S(=O)(=O)NC(C)C)c2c(C)ccc(C(C)C)cc1-2`, the melting point lay within 128 to 130 °C.

As to `O=C1N(CCCOCc2ccccc2)c2ccccc2C12COc1cc3c(cc12)OCCO3` (configuration not stated), the melting point lay within 37 to 38 °C.

Compound `O=C(Nc1ccc2cc(CN3CCCC3)ccc2c1)c1ccc(-c2ccc(Cl)cc2)nc1` gave a melting point of 270 to 274 °C.

In turn, `Cn1cc(CC(=O)O)c(OCc2ccc(OCc3csc(-c4ccccc4)n3)nc2)n1` yielded a melting point of 156 to 157 °C.

`CCN(CC)c1cccc2nc3n(c12)CC(OC)CCN3c1ccc(Cl)cc1Cl` (configuration not stated) gave a melting point of 120 to 122 °C.

The compound `O=C(c1ccc(Cl)cc1)c1cc(C2(Nc3ccccc3)OCCO2)ccn1` displayed a melting point of 102 to 103 °C.

For `O=[N+]([O-])c1ccc(-n2nnnc2-c2ccccc2Br)cc1`, the melting point lay in the range of 169 to 170 °C.

On to `CCCC(=CC=CC(C)=CC(=O)O)c1cc(C(C)(C)C)cc(C(C)(C)C)c1`, for which the melting point was 143 to 144 °C.

`CC(C)(C)OC(=O)C(CC(O)(C(F)(F)F)C(F)(F)F)NC(=O)OCc1ccccc1` (configuration not stated) gave a melting point of 83 to 89 °C.

In the case of `COc1ccc(Oc2cccc(C)c2)c(NS(C)(=O)=O)c1`, the melting point is 87 to 88 °C.

For `O=C(/C=C/c1c(Cl)cccc1Cl)/C=C/c1c(Cl)cccc1Cl`, the melting point was in the range of 145 to 146 °C.

The compound `COc1ccc(S(=O)c2ccccc2)cc1[N+](=O)[O-]` (configuration not stated) came in with a melting point of 135 to 137 °C.

In turn, `CC(C)n1c(C=O)c(-c2ccc(F)cc2)c(-c2ccccc2)c1C(=O)Nc1ccccc1` displayed a melting point of 222 to 224 °C.

`Nc1cccc(-c2ccc(CCN3CCN(c4nc(-c5ccccc5)cs4)CC3)cc2)n1` displayed a melting point of 158 to 161 °C.

For the compound `CCOC(=O)c1cc(C)n(-c2cccc(C(N)=O)c2)c1-c1ccccc1`, the melting point fell in the range of 209 to 210 °C.

For the compound `Cc1cc(Oc2cc(C(F)(F)F)ccn2)ccc1OCCNc1ncnc2scnc12`, the melting point lay within 107 to 111 °C.

Consider `O=C(Nc1ccc([N+](=O)[O-])cc1O)Nc1cc(Cl)ccc1O`, for which the melting point lay within 193 to 194 °C.

As for `CC(C)Oc1ccccc1C1(N[C@H](CO)c2ccccc2)C(=O)Nc2ccc(Cl)cc21` (some centres not stated), the melting point is 193 °C.

On to `O=c1c(F)cn(C2CCCO2)c(=O)n1C1CCCO1` (configuration not stated), for which the melting point fell in the range of 105 to 108 °C.

`CC(NC(=O)NO)c1ccc2cc(OCc3csc(-c4ccccc4)n3)ccc2c1` (single isomer, unassigned; (-)) yielded a melting point of 171 to 173 °C.

`COc1ccc2c(O)c(CO)cnc2c1` had a melting point of 291 to 297 °C.

Consider `CCOCc1nc2c(N)nc3cc(OCCN4CCOCC4)ccc3c2n1CC(C)(C)O`, for which the melting point is 161 to 163 °C.

In turn, `O=C(Nc1cccc(F)n1)c1cc(-c2ccc(O)cc2)nc2ccccc12` had a melting point of 210 to 212 °C.

For the compound `O=C(O)C1=Cc2cc(Cl)c(Oc3ccc(OC(F)(F)F)cc3)cc2OC1C(F)(F)F` (configuration not stated), the melting point fell in the range of 198 to 199 °C.

`Cc1ccc2[nH]c(=O)n(C3CCNCC3)c2c1` returned a melting point greater than 300 °C.

Turning to `COc1ccc2c(c1)C(C(=O)N(Cc1ccc(N)cc1)c1ccc(C(C)C)cc1)CCC2` (configuration not stated), the melting point is 115 to 117 °C.

The compound `CC(=NOCCOS(C)(=O)=O)c1ccc(-c2ccc(F)cc2)cc1` yielded a melting point of 103 to 106 °C.

Take `O=C(COc1cc(-c2ccc([N+](=O)[O-])cc2)nc2ccccc12)N1CCOCC1`: the melting point stood at 172 °C.

As for `COc1ccc(S(=O)(=O)N(Cc2cccnc2)[C@@H](C(=O)NOCc2ccccc2)C(C)C)cc1`, the melting point is 74.5 to 76 °C.

Turning to `CCOCc1nc2cnc3ccccc3c2n1CCC(C)C`, the melting point was in the range of 64 to 65 °C.

In turn, `CC(=O)Nc1cccc(/C=C/C(=O)N2CC(CCl)c3c2cc(NC(=O)OCC2c4ccccc4-c4ccccc42)c2ccccc32)c1` (configuration not stated) yielded a melting point of 208 to 209 °C.

In turn, `O=S(=O)(c1ccccc1)n1c2ccc(CCc3ccccc3)cc2c2cc(Cl)cnc21` registered a melting point of 158 to 162 °C.

`CN(C(=O)CCNC#N)c1nnc(-c2cccnc2)s1` came in with a melting point of 155 to 159 °C.

Take `C#Cc1cc(Oc2cnc(N)nc2N)c(C#C)cc1OC`: the melting point was in the range of 163 to 164 °C.

`Cc1ccc(C2C(=O)CC(C)(C)CC2=O)cc1` displayed a melting point of 200 to 202 °C.

Turning to `COC(=O)c1ccc(Cc2cn(C)c3ccc(C(=O)NCC(C)CC(F)(F)F)cc23)c(OC)c1` (configuration not stated), the melting point was 150 to 151 °C.

As to `CCCCCCCCCCCCc1c(C(=O)OCC)[nH]c(C)c1C`, the melting point was in the range of 70 to 71 °C.

For the compound `NCCNC(=O)c1ccc(F)cc1`, the melting point lay within 57 to 60 °C.

As to `Nc1ccc(NC2CCCCC2)cc1`, the melting point lay within 59 to 61 °C.

`CN(Cc1cccc2c1CN(C1CCC(=O)NC1=O)C2=O)C(=O)CCNC(=O)OC(C)(C)C` (configuration not stated) showed a melting point of 222 to 224 °C.

In turn, `CC(=O)N1CCc2ccc(Cl)c(S(=O)(=O)Cl)c2C1` returned a melting point of 121 to 125 °C.

On to `CCN1c2ncccc2C(=O)N(C)c2ccc(-c3c[nH]c(C(N)=O)c3)nc21`, for which the melting point lay within 284 to 285 °C.

For the compound `COc1cccc(OC)c1-c1cc(C(=O)NC2(C(=O)O)C3CC4CC(C3)CC2C4)nn1-c1ccc(NC(=O)CCN2CCCCC2)cc1C` (configuration not stated), the melting point was determined as 240 °C.

Take `CCCN(CCC)Cc1cnc(-c2ncn3c2CN(C)C(=O)c2sccc2-3)o1`: the melting point was in the range of 142 to 144 °C.

On to `COc1cnccc1CCCOc1cccnc1Oc1cccc(Br)c1`, for which the melting point fell in the range of 134 to 136 °C.

`O=C(O)CCCCc1nn(-c2cccc(C(F)(F)F)c2)c2c1CCCC2`: the melting point was 105 °C.

For the compound `O=c1nc(-c2ccc(C(F)(F)F)cn2)sc2ccccc12`, the melting point came out at 207 °C.

The compound `Cc1ccc(-c2cn3cc(-c4cccc(COc5ccc(Cl)cc5)c4)ccc3n2)cc1` registered a melting point of 182 to 184 °C.

Consider `CC(C)(O)COc1ccc(CCCO)c(Oc2ncc(C(F)(F)F)cc2Cl)c1`, for which the melting point is 81.2 to 82 °C.

In the case of `COc1ccc2c(c1)CCN1C[C@H]3CCCN(S(C)(=O)=O)[C@H]3C[C@@H]21`, the melting point was in the range of 165 to 166 °C.

On to `O=C1c2ccccc2C(=O)c2sccc21`, for which the melting point lay in the range of 232 to 234 °C.

Turning to `CC(Sc1nc2ccc(N)cc2s1)C(=O)NCCN(C)Cc1ccc(Cl)c(Cl)c1` (configuration not stated), the melting point was in the range of 97 to 100 °C.

For `O=C(O)c1ccc2c(c1)S(=O)(=O)NCN2C1CC1`, the melting point lay in the range of 263 to 265 °C.

As for `N#Cc1cc(F)c(-n2ncc(Cl)c(Cl)c2=O)cc1F`, the melting point amounted to 206 °C.

`CCNC(=O)c1ccccc1Nc1nc(Nc2cc3c(cc2OC)CC(=O)N(CC)CC3)ncc1Cl` yielded a melting point of 244 to 251 °C.

Regarding `CC(=O)On1c(=O)c(=O)[nH]c2cc(C(F)(F)F)c(C#N)cc21`, the melting point turned out to be 230 °C.

Compound `CCC(=O)N1CCC[C@H]1C(=O)O` had a melting point of 98 to 99 °C.

Compound `COc1ccc(OC)c(S(=O)(=O)Nc2ccccc2/C=C/c2ccncc2)c1` displayed a melting point of 193 to 195 °C.

`CCOC1=NS(=O)(=O)c2cccc([N+](=O)[O-])c21` came in with a melting point of 190 to 191 °C.

As for `O=C(O)CS(=O)(=O)CC(F)(F)F`, the melting point turned out to be 145 °C.

`COc1ccc2cc(CCC(C)O)ccc2c1` (configuration not stated) registered a melting point of 94 to 95 °C.

`CCCCn1c(=O)c(NC(=O)Nc2c(C(C)C)cc(N(C)Cc3cccnc3)cc2C(C)C)c(-c2cccc(OC)c2)c2cccnc21` gave a melting point of 155 to 157 °C.

In turn, `CCOC(=O)C(C#N)=Cc1ccc(OC)c(OC2CCCC2)c1` registered a melting point of 109 to 110 °C.

Compound `NC(=O)C(=O)NC(C(=O)OC(c1ccccc1)c1ccccc1)c1ccco1` (configuration not stated) yielded a melting point of 168 to 170 °C.

The compound `COC(=O)c1ccccc1SCOc1ccc(Cl)cc1Cl` had a melting point of 122 to 124 °C.

For `COc1ccc([N+](=O)[O-])c(NC(=O)OC(C)(C)C)c1`, the melting point was in the range of 112 to 114 °C.

As to `Cc1ccc(S(=O)(=O)OCCOc2ccc(Nc3ncc(C#N)c(-c4ccccc4)n3)cc2)cc1`, the melting point stood at 147 °C.

For `O=C(O)Cc1cc(Cl)cc2c(-c3ccccc3)onc12`, the melting point lay in the range of 188 to 190 °C.

Consider `CCOC(=O)C#CC(C)(C)OC(=O)Nc1ccc(-c2ncn(-c3ccc(OC(F)(F)F)cc3)n2)cc1`, for which the melting point was in the range of 183 to 188 °C.

Consider `OCc1cn2c(n1)CN=C(c1ccccn1)c1cc(Cl)ccc1-2`, for which the melting point was 206 to 207 °C.

Take `OC1CSC(Sc2ccccc2C(F)(F)F)C(O)C1O` (configuration not stated): the melting point is 114 to 115 °C.

Turning to `COc1ccc2c(c1)C(=O)C(Cc1c[nH]c3ccccc13)CO2` (configuration not stated), the melting point is 121 to 123 °C.

On to `Cc1cccc(CC(=O)c2ccnc(-c3ccc(C(=O)N4CCOCC4)cc3)c2)n1`, for which the melting point was 106 °C.

`CSc1nc(-c2ccncc2)n(-c2ccc(F)cc2)c(=O)c1C#N` gave a melting point of 301 to 303 °C.

In the case of `CC(=O)Nc1cnn2c1-c1ccccc1N(C(C)=O)C2C` (configuration not stated), the melting point was in the range of 218 to 220 °C.

As for `CC(=O)NCC=C1CCc2ccc3nc(CCCCc4ccccc4)oc3c21`, the melting point lay in the range of 113 to 115 °C.

Take `O=C(O)Cc1csc2cc(-c3ccccc3)cn12`: the melting point lay in the range of 114 to 116 °C.

`O=C(O)c1cccc2[nH]c(=O)c(-c3csc(-c4ccncc4)n3)cc12`: the melting point is greater than 250 °C.

For `CC(C)=CCN1C(=O)c2ccccc2C1=O`, the melting point fell in the range of 95 to 97 °C.

In turn, `Nc1ncc2cc(-c3ccccc3)c(N)nc2n1` gave a melting point of 317 to 318 °C.

On to `O=c1ccn(C2OC(CO)C(O)C2Cl)c(=O)[nH]1` (configuration not stated), for which the melting point is 206 to 207 °C.

In the case of `CCCCc1nc2c(N)nc3ccccc3c2n1CCCCNS(=O)(=O)c1ccccc1`, the melting point was 75.5 to 79 °C.
